We go through 1 compound from patent publication US20250113823A1, “Arthropod Control Compositions” (priority 2022, published 2025).

Where only a bound is given, the exact number is not on record here.

What all share (format): in vivo
The subject of experiment [1] is Aedes aegypti. Put plainly: Free flying room assay, spatial repellence with human volunteer. The text has this: The goal of this large-scale test is to assess the propensity of stimulus released in the air to protect a human volunteer by limiting the mosquito presence in a protected space and the number of landing/biting. The protocol used to carry the test is following the guidelines indicated in WHO (2013; ISBN 978 92 4 150502 4).
A group of 50 Aedes aegypti female mosquitoes were introduced in one chamber of 25 m^3 one hour before the test started. The product was applied in the other chamber of 25 m^3 (“treated chamber”) and let evaporate for 30 minutes. The test started when the window separating the two chambers was opened in a tilt-on manner for another 30 minutes. Twenty minutes after the window was opened, a volunteer entered in the “treated chamber” and sat down for 10 minutes, exposing the forearm for the last 3 minutes to determine the probing activity (Protective Efficacy). Then, the connecting window was closed and the number of mosquitoes in each of the chambers was counted (Spatial Repellency). The negative controls were carried out following the same procedure but without the application of the stimulus. Three replicates of each treatment and of the negative control were conducted with three different volunteers.

Experiment [2] has as its system Aedes aegypti. The experiment is described as follows: Double (dual) chamber assay, spatial repellence. As to conditions: after 30 min of injection. The protocol: FIG. 1: Percentage of mosquitoes Aedes aegypti escaping over time the chamber treated with a stimulus. The four stimuli were the solvent propan-1,2-diol (grey triangles and dotted line), N,N-diethyl-meta-toluamide (medium grey diamonds), 2,6-dimethoxy-4-methylphenol (light gray squares) and 1,2,3-trimethoxy-5-propylbenzene (black circles). Each stimulus was injected during 40 min thanks to a forced evaporation system in the treated chamber containing the mosquitoes, causing their movement toward the untreated refuge chamber. Each point represents the mean number of mosquitoes in the untreated chamber (n=57, 6, 4 and 4 respectively)±SD at 10 min intervals.
The goal of this assay was to reproduce at a smaller scale the validation test for spatial repellent as described in WHO (2013; ISBN 978 92 4 150502 4).
The assay consists of a transparent cage (1200×755×700 mm; ˜0.63 m^3) covered by white paper. This cage is divided in two chambers of equal dimensions by a plasticized paper wall with square opening (200×200 mm) situated in the middle of the wall. At the beginning of the experiment, about 40 two-weeks old female Aedes aegypti mosquitoes are placed in the right chambers. Once the mosquitoes are settled inside this chamber (>5 min), the door between the chambers is opened. Then the stimulus is introduced into the mosquito chamber through a L-shape Teflon tube (40 mm) placed in the middle of the right Plexiglas wall. The stimulus is dispensed thanks to a Forced Evaporation System (Chappuis et al, 2015, DOI: 10.1021/acs.est.5b00692) at a rate of 0.1 mL/min in a nitrogen flow of 1 L/min, blended in a humid air flow of 9L/min before being carried to the L-shape Teflon tube. An air sucking system (˜150 L/min) is placed above the wall opening, between the two chambers (100 mm Ø), preventing the untreated chamber from being contaminated by the stimulus and limiting the stimulus accumulation in the treated chamber. […] Ten, 20, 30 and 40 minutes after the start of the stimulus injection, the number of mosquitoes that have moved to the untreated chamber is manually counted.

In experiment [3] the test system is Aedes aegypti. The experiment is described as follows: Arm-in-cage test on human volunteers. As to conditions: arm treated with 20%, three human volunteers. The protocol:
The controlling effect, repellence & spatial repellence, according to the present invention is also determined according to an arm in the box method adapted from the WHO Guidelines for efficacy testing of mosquito repellents for human skin (WHO/CDS/NTD/WHOPES/2009.4). The readiness of 100 hungry female mosquitoes A. aegypti to a test substance is assessed by comparing the results of an untreated arm to a treated in when inserted into the cage (40×40×40 cm) for 30 seconds (negative control) three times. Further information is provided in the accompanying examples.
The Arm in the box method was adapted from the WHO Guidelines for efficacy testing of mosquito repellents for human skin (WHO/CDS/NTD/WHOPES/2009.4). The readiness of 100 hungry female mosquitoes A. aegypti to probe is assessed by inserting the untreated arm of human volunteers into the cage (40×40×40cm) for 30 seconds (negative control) in order to determine probing activity. Then, the product is applied onto the skin of the forearm of the human volunteer (1 mL per 600 cm^2) and after 5 minutes, this arm is inserted into the cage and exposed for 3 minutes. The assay take place in temperature (27±2° C.) and humidity (80±10% RH) regulated room on three different human volunteers.

The subject of a further experiment is Anopheles gambiae. Put plainly: Warm Body assay, mosquito landings on treated warm body. The protocol: Anopheles gambiae is also a model organism as it is anthropophilic and transmits malaria.
The controlling effect according to the present invention was assessed using an adapted Warm Body assay as defined in Kröber T, Kessler S, Frei J, Bourquin M, Guerin P M. 2010. J Am Mosq Control Assoc. 26: 381-386. In this in-vitro assay the number of mosquito landing on a warm body, simulating an attractive host treated with the tested stimuli, was measured in order to assess the repellence effect.
On the sandblasted glass Petri dish covering the warm body (28.3 cm^2), 100 μL of the compounds diluted at different concentrations in ethanol was applied. The number of mosquito landing on the warm body was counted for each stimulus and pure ethanol (solvent) as control.

On to `CCCc1cc(OC)c(OC)c(OC)c1` [compound 1975, 1,2,3-trimethoxy-5-propylbenzene], for which, in the experiment on Aedes aegypti [1] (in 3 minutes, negative control 60.7±2.5 landings), the “mosquitoes landed on the volunteer” value was 15.7±3.1. In addition, the “Spatial Repellence” value in the experiment with Aedes aegypti [1] (large scale assay, 25 m3 chambers, compound released in the air) came to 43.9 ± 9.1%. The same compound came in with a Protective efficacy in the experiment on Aedes aegypti [1] (large scale assay, probing on volunteer forearm, 3 minutes) of 74.2 ± 4.4%. The “mosquito entered the treated chamber” value in the experiment on Aedes aegypti [1] (negative control 82.5±3.7%) amounted to 46.3±7.5%. In addition, the “plateau of mosquitoes moved to the untreated chamber” value in the experiment on Aedes aegypti [2] is listed as approximately 54%. The “reduction of the number of mosquito Aedes aegypti landings” value in the experiment on Aedes aegypti [3] is recorded as 99.4%±0.4%. For the same compound, the pest or weed control at 3.2 µg/mL in the experiment on Anopheles gambiae (Anopheles gambiae, 0.0032 mg/mL (Table 5), read-out: Percentage of repellence of mosquitoes Anopheles gambiae landing on the warm body) turned out to be 0%. In addition, in the experiment with Anopheles gambiae (Anopheles gambiae, 0.0071 mg/mL (Table 5), read-out: Percentage of repellence of mosquitoes Anopheles gambiae landing on the warm body), the pest or weed control at 7.1 µg/mL came to 5%. In the experiment on Anopheles gambiae (Anopheles gambiae, 0.016 mg/mL (Table 5), read-out: Percentage of repellence of mosquitoes Anopheles gambiae landing on the warm body), the pest or weed control at 16 µg/mL was found to be 78%. The pest or weed control at 53 µg/mL in the experiment on Anopheles gambiae (Anopheles gambiae, 0.053 mg/mL (Table 5), read-out: Percentage of repellence of mosquitoes Anopheles gambiae landing on the warm body) stood at 23%. For the same compound, in the experiment with Anopheles gambiae (Anopheles gambiae, 0.08 mg/mL (Table 5), read-out: Percentage of repellence of mosquitoes Anopheles gambiae landing on the warm body), the pest or weed control at 80 µg/mL worked out at 0%. For the same compound, the pest or weed control at 400 µg/mL with Anopheles gambiae (Anopheles gambiae, 0.4 mg/mL (Table 5), read-out: Percentage of repellence of mosquitoes Anopheles gambiae landing on the warm body) is 94%. Further, in the experiment on Anopheles gambiae (Anopheles gambiae, 2 mg/mL (Table 5), read-out: Percentage of repellence of mosquitoes Anopheles gambiae landing on the warm body), the pest or weed control at 2000 µg/mL is 95%. In addition, the pest or weed control at 4470 µg/mL with Anopheles gambiae (Anopheles gambiae, 4.47 mg/mL (Table 5), read-out: Percentage of repellence of mosquitoes Anopheles gambiae landing on the warm body) was 100%. In addition, the pest or weed control at 10000 µg/mL in the experiment with Anopheles gambiae (Anopheles gambiae, 10 mg/mL (Table 5), read-out: Percentage of repellence of mosquitoes Anopheles gambiae landing on the warm body) came to 98%. For the same compound, the repulsion in the experiment with Anopheles gambiae (all doses ≥0.04% applied on the Warm Body (Table 5)) is more than 90%.
